Laboratory results as given in patent US20110244059A1, “INHIBITING OBESITY PROGRESSION BY INHIBITING ADIPOCYTE DIFFERENTIATION WITH A PRE-ADIPOCYTE AUTOPHAGY INHIBITOR” (The University of Medicine and Dentistry of New Jersey, priority 2008, published 2011).
“Also recorded” adds a separate entry of the source.

Experiments:
[1] = tested on: wild type primary MEFs; test: Adipocyte differentiation (adipogenesis) of primary MEFs under standard induction protocol; type: cell-based, mouse
Procedure: The MEFs were prepared from 13.5 days embryos of atg5+/+ and atg5−/− mice according to standard protocol. Briefly, whole mouse embryos were removed from the uterus, dissected and the head, tail, limbs and all internal organs were removed. The carcasses were minced, washed in PBS, and then incubated in 2 ml 0.05% Trypsin-EDTA (Invitrogen, CA, US) at 37° C. for 20 min with shaking. The digested cells were plated on a 100-mm dish in Dulbecco's modified Eagle's medium (DMEM, Invitrogen) with 10% fetal bovine serum (FCS, Invitrogen) and incubated at 37° C. in humidified air containing 5% CO2. Cells were grown for 24 hr until the culture was 90% confluent, and then split and passed on. The primary MEF cells of passage three to five were treated under standard protocol to induce adipocyte differentiation (Banks, A. S., et al. Deletion of SOCS7 leads to enhanced insulin action and enlarged islets of Langerhans. J. Clin. Invest. September 2005 115, 2462-2471). Briefly, cells were seeded in 6-well plates with cover slips and propagated to confluence. 48 hours later, which was designated as Day 0, differentiation was initiated using Dulbecco's Modified Eagle's Medium (DMEM) containing 10% fetal bovine serum, 5 μg/ml insulin, 1 μM dexamethasone, 0.5 mM 3-Isobutyl-1-methylxanthine (IBMX), and 10 μM troglitazone (Sigma, MO, US). After 2-day initiation, the media was replaced with a maintenance medium (DMEM containing 10% fetal bovine serum, 5 μg/ml insulin, and 10 μM troglitazone). Fresh maintenance medium was replaced every 2 days thereafter. Cells collected at various time points, up to maximal 14 days.
The medium was replaced with maintenance medium including 10 μM CQ two days after initiation. Fresh maintenance medium with 10 μM CQ was replaced every two days thereafter.
Live cells were observed under the Olympus IX70 microscope with relief contrast objectives (10× or 40×). […] For time-lapse microscopy, cells were plated on tissue culture plates and monitored using Olympus IX70 microscope with the 37° C. and 5% CO2 environmental chamber using 10× objectives. Images were collected with CCD video camera (Model MicroMax; Princeton Instruments, Trenton, N.J., US) at 5 min intervals and saved as images stacks using IPLab software (BD Biosciences Bioimaging, Rockville, Md., US). Images were processed using Image J software (NIH, Bethesda, Md., US).
Bodipy: The differentiating cells were stained with BODIPY 493/503 (Invitrogen, CA, US) as described (DiDanato, D. et al. Fixation methods for the study of lipid droplets by immunofluorescence microscopy. J Histochem. Cytochem June 2003 51, 773-780; Gocze, P. M. et al. Factors underlying the variability of lipid droplet fluorescence in MA-10 Lydig tumor cells. Cytometry 17, 151-158.) Briefly, the cell culture slides were washed once with phosphate-buffered saline (PBS), fixed with 3% paraformaldehyde in PBS for 30 minutes at room temperature, and washed 4 times with PBS, and then stained with 10 μg/ml Bodipy 493/503 at room temperature for 15 minutes in darkness, mounted with Vectashield Mounting Medium (Vector Laboratories, CA, US). Oil Red-O: The cells on cover slides were stained with Oil Red-O (Sigma, MO, US) according to Kim et al with some modification (Kim, Y. K., et al. Reversine stimulates adipocyte differentiation and downregulates Akt and p70(s6k) singaling pathways in 3T3-L1 cells. Biochem Biophys Res Commun 358, 553-558). Oil Red-O was dissolved in isopropanol to 3.5 mg/ml. Before using, dilute 6 parts Oil Red-O stock with 4 parts H2O, sit at room temp for 20 min, and filter through 0.2 μm filter. The slides were washed once with PBS, fixed with 4% paraformaldehyde (Fisher Scientific, PA, US) buffered with PBS for 1 hr, and then washed twice with 60% isopropanol for 5 minutes each. Cells were then air dried and stained with Oil Red-O working solution for 30 minutes at 25° C.

[2] = tested on: wild type MEFs

| SMILES | adipocyte differentiation of primary MEFs ([1]; 1 micro molar hydroxychloroquine, lesser degree than 10 micro molar) | adipocyte differentiation of primary MEFs ([1]; 5 micro molar hydroxychloroquine, lesser degree than 10 micro molar) | adipocyte differentiation of primary MEFs ([1]; 10 micro molar hydroxychloroquine during differentiation induction) | fate of cells that did differentiate ([1]; hydroxychloroquine treatment, 10 micro molar) | viability of the undifferentiated cells [2] | lipid accumulation, Bodipy 493/503 staining ([1]; 10 μM chloroquine, 14 days after differentiation induction, FIG. 9B) | lipid accumulation, Oil Red-O staining (spectrometry) ([1]; 10 μM chloroquine, 14 days after differentiation induction, FIG. 9C) | cytotoxic effect on MEFs (Tunel assay) ([2]; 10 μM chloroquine for 4 days, FIG. 9D) |
| --- | --- | --- | --- | --- | --- | --- | --- | --- |
| CCN(CCO)CCCC(C)Nc1ccnc2cc(Cl)ccc12 (centres unmarked) [hydroxychloroquine] | had inhibitory effect on blocking adipocyte differentiation | had inhibitory effect on blocking adipocyte differentiation | stalled at the initial stage of adipocyte differentiation | eventually died | not apparently affected | – | – | – |
| CCN(CC)CCCC(C)Nc1ccnc2cc(Cl)ccc12 (centres unmarked) [chloroquine] | – | – | – | – | – | same inhibitory effect | same inhibitory effect | little cytotoxic effect; also recorded: non-toxic |
